This test relates to A549 cells. Kind of test: Antiproliferative effect by MTT assay. Format: cell-based, human. Conditions: 48 h, G Rh2 6.4 μg/mL. How it is done: The human NSCLC cell line, A549, was cultured in RPMI 1640 medium containing 10% FBS at 37 °C and 5% CO2 in an incubator with saturated humidity. The medium was replaced every 2 days and the cells were passaged at the split ratio of 1:8 every 5–7 days. Cells grown to the logarithmic growth phase were harvested for further experiments.
The A549 cells were seeded in a 96-well plate at 5 × 10^3 cells/well and incubated for 24 h. The medium was then discarded and each well received 100 μL of different concentrations of CG-M, CG-Mblank, celastrol + G Rh2, celastrol and G Rh2. After 48 h of incubation, 100 μL of 0.5 mg/mL MTT in phosphate-buffered saline (PBS) was added to each well, followed by 4 h of incubation in the dark. […] The plate was shaken at low speed for 3 min, and the absorbance at 570 nm was measured using a microplate reader to calculate cell viability. Cell viability (%) = Absorbance of the drug treatment group (Adrug)/Absorbance of the control group (Acontrol) × 100. The IC50 was calculated by GraphPad prism 6.0 software (GraphPad Software Inc., San Diego, CA). The combined index (CI) was calculated with the following formula: CI = IC50 of celastrol in combination group/IC50 of celastrol + IC50 of G Rh2 in combination group/IC50 of G Rh2 (Qu et al., [2017]; Wu et al., [2017]), which represents a synergistic antitumor effect if the value is less than 1.

Turning to `CC(C)=CCC[C@](C)(O)[C@H]1CC[C@]2(C)[C@@H]1[C@H](O)C[C@@H]1[C@@]3(C)CC[C@H](O[C@@H]4O[C@H](CO)[C@@H](O)[C@H](O)[C@H]4O)C(C)(C)[C@@H]3CC[C@]12C` [G Rh2, ginsenoside Rh2], the “survival rate of cells” value is recorded as 67.5%.

The values above are taken from paper PMC8241176, “Preliminary study on fabrication, characterization and synergistic anti-lung cancer effects of self-assembled micelles of covalently conjugated celastrol–polyethylene glycol–ginsenoside Rh2” (Drug Delivery, 2017).
